From ChEMBL document CHEMBL1955803, “Preclinical in vivo evaluation of efficacy, pharmacokinetics, and pharmacodynamics of a novel MEK1/2 kinase inhibitor RO5068760 in multiple tumor models” (Mol Cancer Ther, 2010)
pEC50, pIC50: −log10 of the molar value. Active and inactive are the calls of the source. The rule behind the calls is not given here.

Columns and labels:
[1] = system: HT-29; assay: Induction of apoptosis in human HT-29 cells; type: functional, cell-based
[2] = system: Mus musculus; assay: Toxicity in human LOX cells expressing B-Raf V600E mutant xenografted nude mouse assessed as gross signs of adverse effect at 6.25 to 200 mg/kg, po bid for 3 weeks; type: organism-based; parameters: dose 6.25-200 mg/kg, route oral; settings: in vivo, 504 h
[3] = Drug level in human HT-29 cells expressing B-Raf V600E mutant xenografted nude mouse tumor at 100 mg/kg, po after 4 hrs; type: ADME, organism-based, Neoplasm; parameters: dose 100 mg/kg, route oral; settings: read-out: Drug uptake
[4] = system: Mus musculus; assay: Inhibition of MEK-mediated ERK phosphorylation in tumor of human HT-29 cells expressing B-Raf V600E mutant xenografted nude mouse at 100 mg/kg, po after 2 hrs by Western blot analysis relative to control; type: functional; settings: HT-29, 2 h
[5] = system: MIA PaCa-2; assay: Antitumor activity against human MIAPaCa2 cells expressing K-Ras G12C mutant xenografted in nude mouse assessed as tumor growth inhibition at 100 mg/kg, po bid; type: functional; settings: read-out: GI
[6] = system: Mus musculus; assay: Average drug concentration in human LOX cells expressing B-Raf V600E mutant xenografted nude mouse plasma at 25 mg/kg, po bid; type: ADME, organism-based; parameters: dose 25 mg/kg, route oral; settings: in vivo
[7] = system: Mus musculus; assay: Inhibition of MEK-mediated ERK phosphorylation in po dosed human HT-29 cells expressing B-Raf V600E mutant xenografted nude mouse tumor by Western blot analysis; type: functional, organism-based
[8] = system: HT-29; assay: Reversible growth inhibition of human HT-29 cells expressing B-Raf V600E mutant measured up to 3 days by MTT assay; type: functional, cell-based
[9] = Plasma concentration in human LOX cells expressing B-Raf V600E mutant xenografted nude mouse at 100 mg/kg, po after 2 hrs; type: ADME, organism-based; parameters: dose 100 mg/kg, route oral
[10] = Cmax in human MIAPaCa2 cells expressing K-Ras G12C mutant xenografted nude mouse at 25 mg/kg, po bid; type: ADME, organism-based, MIA PaCa-2; parameters: dose 25 mg/kg, route oral; settings: in vivo
[11] = system: Mus musculus; assay: Toxicity in human MIAPaCa2 cells expressing K-Ras G12C mutant xenografted nude mouse assessed as gross signs of adverse effect at 500 mg/kg, po administered weekly once for 3 weeks; type: organism-based, MIA PaCa-2; parameters: dose 500 mg/kg, route oral; settings: in vivo, 504 h
[12] = Cmax in human MIAPaCa2 cells expressing K-Ras G12C mutant xenografted nude mouse at 200 mg/kg, po qd; type: ADME, organism-based, MIA PaCa-2; parameters: dose 200 mg/kg, route oral; settings: in vivo
[13] = AUC (0 to 12 hrs) in human H460 cells expressing K-Ras Q61H mutant xenografted nude mouse at 50 mg/kg, po bid; type: ADME, organism-based; parameters: time < 12 hr, dose 50 mg/kg, route oral; settings: in vivo
[14] = Antitumor activity against human LOX cells expressing B-Raf V600E mutant xenografted in nude mouse assessed as tumor growth inhibition at 100 mg/kg, po bid; type: functional; settings: read-out: GI
[15] = system: Mus musculus; assay: Average drug concentration in human H460 cells expressing K-Ras Q61H mutant xenografted nude mouse plasma at 50 mg/kg, po bid; type: ADME, organism-based; parameters: dose 50 mg/kg, route oral; settings: in vivo
[16] = system: Mus musculus; assay: Inhibition of MEK-mediated ERK phosphorylation in tumor of human HT-29 cells expressing B-Raf V600E mutant xenografted nude mouse at 50 mg/kg, po after 8 hrs by Western blot analysis relative to control; type: functional; settings: HT-29, 8 h
[17] = system: Mus musculus; assay: Inhibition of MEK-mediated ERK phosphorylation in tumor of human HT-29 cells expressing B-Raf V600E mutant xenografted nude mouse at 50 mg/kg, po after 4 hrs by Western blot analysis relative to control; type: functional; settings: HT-29, 4 h
[18] = system: NCI-H460; assay: Antitumor activity against human H460 cells expressing K-Ras Q61H mutant xenografted in nude mouse assessed as tumor growth inhibition at 50 mg/kg, po bid; type: functional; settings: read-out: GI
[19] = Drug level in human LOX cells expressing B-Raf V600E mutant xenografted nude mouse tumor at 100 mg/kg, po after 4 hrs; type: ADME, organism-based, Neoplasm; parameters: dose 100 mg/kg, route oral; settings: read-out: Drug uptake
[20] = target: T1, Dual specificity mitogen-activated protein kinase kinase; MEK1/2 (Homo sapiens) (UniProt P36507+Q02750); settings: HT-29, 2 to 10 uM
Description: Inhibition of MEK1/2 in human HT-29 cells assessed as down regulation of CDK4/cyclin D1 expression at 2 to 10 uM by Western blot analysis

[21] = system: Mus musculus; assay: Inhibition of MEK-mediated ERK phosphorylation in po dosed human LOX cells expressing B-Raf V600E mutant xenografted nude mouse plasma by Western blot analysis; type: functional, organism-based
[22] = system: NCI-H460; assay: Antitumor activity against human H460 cells expressing K-Ras Q61H mutant xenografted in nude mouse assessed as tumor growth inhibition at 25 mg/kg, po bid; type: functional; settings: read-out: GI
[23] = system: Mus musculus; assay: Average drug concentration in human HT-29 cells expressing B-Raf V600E mutant xenografted nude mouse plasma at 100 mg/kg, po bid; type: ADME, organism-based; parameters: dose 100 mg/kg, route oral; settings: in vivo
[24] = Drug level in human HT-29 cells expressing B-Raf V600E mutant xenografted nude mouse tumor at 50 mg/kg, po after 4 hrs; type: ADME, organism-based, Neoplasm; parameters: dose 50 mg/kg, route oral; settings: read-out: Drug uptake
[25] = Drug level in human HT-29 cells expressing B-Raf V600E mutant xenografted nude mouse tumor at 50 mg/kg, po after 8 hrs; type: ADME, organism-based, Neoplasm; parameters: dose 50 mg/kg, route oral; settings: read-out: Drug uptake
[26] = system: Mus musculus; assay: Inhibition of MEK-mediated ERK phosphorylation in tumor of human LOX cells expressing B-Raf V600E mutant xenografted nude mouse at 100 mg/kg, po after 1 hr by Western blot analysis relative to control; type: functional
[27] = Drug level in human HT-29 cells expressing B-Raf V600E mutant xenografted nude mouse tumor at 100 mg/kg, po after 8 hrs; type: ADME, organism-based, Neoplasm; parameters: dose 100 mg/kg, route oral; settings: read-out: Drug uptake
[28] = AUC (0 to 12 hrs) in human H460 cells expressing K-Ras Q61H mutant xenografted nude mouse at 25 mg/kg, po bid; type: ADME, organism-based; parameters: time < 12 hr, dose 25 mg/kg, route oral; settings: in vivo
[29] = system: Mus musculus; assay: Inhibition of MEK-mediated ERK phosphorylation in tumor of human LOX cells expressing B-Raf V600E mutant xenografted nude mouse at 100 mg/kg, po after 12 hrs by Western blot analysis relative to control; type: functional
[30] = system: NCI-H460; assay: Antitumor activity against human H460 cells expressing K-Ras Q61H mutant xenografted in nude mouse assessed as tumor growth inhibition at 100 mg/kg, po bid; type: functional; settings: read-out: GI
[31] = system: HT-29; assay: Antitumor activity against human HT-29 cells expressing B-Raf V600E mutant xenografted in nude mouse assessed as tumor growth inhibition at 50 mg/kg, po bid; type: functional; settings: read-out: GI
[32] = target: T1, Dual specificity mitogen-activated protein kinase kinase; MEK1/2 (Homo sapiens); settings: HT-29, 2 to 10 uM; remark: listed apart in the source
Description: Inhibition of MEK1/2 in human HT-29 cells assessed as upregulation of p27 expression at 2 to 10 uM by Western blot analysis

[33] = target: Dual specificity mitogen-activated protein kinase kinase 1 (Homo sapiens, UniProt Q02750); assay: Inhibition of MEK1 in human HT-29 cells assessed as inhibition of ERK phosphorylation by Western blot analysis; type: cell-based
[34] = target: T1, Dual specificity mitogen-activated protein kinase kinase; MEK1/2 (Homo sapiens); settings: LOX, 2 to 10 uM
Description: Inhibition of MEK1/2 in human LOX cells assessed as inhibition of ERK1/2 phosphorylation at 2 to 10 uM by Western blot analysis

[35] = Antitumor activity against human LOX cells expressing B-Raf V600E mutant xenografted in nude mouse assessed as tumor growth inhibition at 12.5 mg/kg, po bid; type: functional; settings: read-out: GI
[36] = system: NCI-H460; assay: Antitumor activity against human H460 cells expressing K-Ras Q61H mutant xenografted in nude mouse assessed as tumor growth inhibition at 200 mg/kg, po bid; type: functional; settings: read-out: GI
[37] = Cmax in human H460 cells expressing K-Ras Q61H mutant xenografted nude mouse at 50 mg/kg, po bid; type: ADME, organism-based; parameters: dose 50 mg/kg, route oral; settings: in vivo
[38] = Antitumor activity against human LOX cells expressing B-Raf V600E mutant xenografted in nude mouse assessed as tumor growth inhibition at 25 mg/kg, po bid; type: functional; settings: read-out: GI

T1 sequence (P36507 whole entry, looked up): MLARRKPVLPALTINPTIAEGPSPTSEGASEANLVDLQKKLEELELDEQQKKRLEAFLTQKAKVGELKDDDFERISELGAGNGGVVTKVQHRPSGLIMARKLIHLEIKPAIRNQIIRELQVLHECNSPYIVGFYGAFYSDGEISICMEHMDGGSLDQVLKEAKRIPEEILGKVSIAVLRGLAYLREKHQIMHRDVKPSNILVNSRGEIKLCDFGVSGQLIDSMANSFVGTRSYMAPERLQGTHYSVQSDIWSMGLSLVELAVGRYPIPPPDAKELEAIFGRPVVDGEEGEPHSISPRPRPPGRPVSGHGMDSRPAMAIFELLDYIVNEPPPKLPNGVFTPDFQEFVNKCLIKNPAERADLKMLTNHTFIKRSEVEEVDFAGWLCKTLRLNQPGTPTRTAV
T1 sequence (Q02750 whole entry, looked up): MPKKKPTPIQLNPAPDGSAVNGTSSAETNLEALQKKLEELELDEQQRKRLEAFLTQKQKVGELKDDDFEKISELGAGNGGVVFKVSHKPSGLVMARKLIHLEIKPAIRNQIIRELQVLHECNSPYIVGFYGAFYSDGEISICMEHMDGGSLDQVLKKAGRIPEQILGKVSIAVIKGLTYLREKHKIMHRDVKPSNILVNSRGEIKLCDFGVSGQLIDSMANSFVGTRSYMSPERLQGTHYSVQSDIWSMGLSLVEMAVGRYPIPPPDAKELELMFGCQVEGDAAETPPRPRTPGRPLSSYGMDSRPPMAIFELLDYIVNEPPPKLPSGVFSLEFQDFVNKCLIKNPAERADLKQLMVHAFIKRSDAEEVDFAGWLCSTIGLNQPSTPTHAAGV
Chain of Dual specificity mitogen-activated protein kinase kinase 1 (Q02750 whole entry): as the sequence (Q02750 whole entry, looked up) above

concentration at 4 h [3]: 945 ng/g
Cave [6]: 833 ng/mL
EC50 [7]: 1001 ng/g
concentration at 2 h [9]: 6300 ng/mL
Cmax [10]: 3960 ng/mL
Cmax [12]: 15500 ng/mL
AUC at 12 h [13]: 23300 ng·h/mL
Cave [15]: 1942 ng/mL
concentration at 4 h [19]: 2630 ng/g
inhibition [20]: Active
pEC50 [21]: 5.87
Cave [23]: 1530 ng/mL
concentration at 4 h [24]: 1490 ng/g
concentration at 8 h [25]: 906 ng/g
concentration at 8 h [27]: 293 ng/g
AUC at 12 h [28]: 8800 ng·h/mL
inhibition [32]: Active
pIC50 [33]: 7.92
inhibition [34]: Active
Cmax [37]: 8080 ng/mL
SMILES: C[C@@H](c1ccccc1)[C@@H](C(=O)Nc1ccc(I)cc1F)N1C(=O)N[C@H](c2ccc(OC[C@H](O)CO)cc2)C1=O
Activity [1]: Active
Activity [2]: Non-toxic
inhibition in vivo at 100 mg/kg [4]: 76%
inhibition in vivo at 100 mg/kg [5]: > 100%
Activity [8]: Active
Activity [11]: Non-toxic
inhibition in vivo at 100 mg/kg [14]: > 100%
inhibition in vivo at 50 mg/kg [16]: 12%
inhibition in vivo at 50 mg/kg [17]: 81%
inhibition in vivo at 50 mg/kg [18]: 83%
inhibition in vivo at 25 mg/kg [22]: 64%
inhibition in vivo at 100 mg/kg [26]: 77%
inhibition in vivo at 100 mg/kg [29]: 12%
inhibition in vivo at 100 mg/kg [30]: 90%
inhibition in vivo at 50 mg/kg [31]: 75%
inhibition in vivo at 12.5 mg/kg [35]: 99%
inhibition in vivo at 200 mg/kg [36]: 80%
inhibition in vivo at 25 mg/kg [38]: > 100%
